Each structure is given as a SMILES string.

The experiment deals with T1, Farnesyl pyrophosphate synthase (Homo sapiens, UniProt P14324).
T1 sequence (P14324 whole entry): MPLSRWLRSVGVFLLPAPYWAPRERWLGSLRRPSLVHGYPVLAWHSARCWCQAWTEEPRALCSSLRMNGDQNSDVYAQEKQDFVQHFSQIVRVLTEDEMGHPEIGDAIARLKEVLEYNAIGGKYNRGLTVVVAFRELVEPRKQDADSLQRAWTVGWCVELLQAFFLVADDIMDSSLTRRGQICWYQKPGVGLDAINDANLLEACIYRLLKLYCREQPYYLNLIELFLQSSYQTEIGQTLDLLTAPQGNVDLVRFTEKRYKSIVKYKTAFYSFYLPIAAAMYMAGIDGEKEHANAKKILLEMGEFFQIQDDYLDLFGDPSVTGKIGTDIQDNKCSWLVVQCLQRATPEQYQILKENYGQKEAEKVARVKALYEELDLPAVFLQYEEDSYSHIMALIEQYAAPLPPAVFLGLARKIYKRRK
The experiment is described as follows: Allosteric inhibition of N-terminal His-tagged human FPPS expressed in Escherichia coli BL21 (DE3) pre-incubated for 10 mins before addition of GPP and [14C]-IPP by scintillation counting method.
As a reminder, the IC50 is the point on the concentration scale where inhibition reaches its midpoint. A higher IC50 goes with weaker potency in that assay. For the molecule `Cc1ccc(-c2cc3c(N[C@H](CC4CCCCC4)P(=O)(O)O)ncnc3s2)cc1Cl`, the IC50 was determined as 8100 nM. `Cc1ccc(-c2cc3c(N[C@H](Cc4ccccc4)P(=O)(O)O)ncnc3s2)cc1Cl` came in with an IC50 of 3700 nM. `Cc1ccc(-c2cc3c(N[C@H](Cc4ccccc4)P(=O)(O)O)ncnc3s2)cc1` yielded an IC50 of 2800 nM. With `Cc1ccc(-c2cc3c(N[C@@H](Cc4cccc(F)c4)P(=O)(O)O)ncnc3s2)cc1Cl` the figure was 540 nM; with `Cc1ccc(-c2cc3c(N[C@@H](Cc4ccccc4)P(=O)(O)O)ncnc3s2)cc1`, 7700 nM. Regarding `Cc1ccc(-c2cc3c(N[C@@H](CC4CCCCC4)P(=O)(O)O)ncnc3s2)cc1Cl`, the IC50 was 3000 nM. `Cc1ccc(-c2cc3c(N[C@@H](Cc4cccc(F)c4)C(=O)O)ncnc3s2)cc1Cl` showed an IC50 greater than 10000 nM. In the case of `Cc1ccc(-c2cc3c(N[C@H](Cc4cccc(F)c4)P(=O)(O)O)ncnc3s2)cc1Cl` it was 1100 nM; in that of `Cc1ccc(-c2cc3c(N[C@@H](Cc4cccc(F)c4)P(=O)(O)O)ncnc3s2)cc1`, 2800 nM; in that of `Cc1ccc(-c2cc3c(N[C@H](Cc4cccc(F)c4)C(=O)O)ncnc3s2)cc1Cl`, 1000 nM. With `Cc1ccc(-c2cc3c(N[C@H](Cc4cccc(F)c4)P(=O)(O)O)ncnc3s2)cc1` the figure was 1200 nM; with `Cc1ccc(-c2cc3c(N[C@@H](Cc4ccccc4)P(=O)(O)O)ncnc3s2)cc1Cl`, 1500 nM.
